Measured values reported in US20220008402A1, “INCREASED E-CADHERIN EXPRESSION OR ACTIVITY FOR THE TREATMENT OF INFLAMMATORY DISEASES” (The Cleveland Clinic Foundation, priority 2020, published 2022).
Entries after “also recorded” stand apart in the source; their conditions may differ.

Tests used:
Type in all cases: cell-based, human
T84 cell monolayers [1] = assay: Cytokine-induced apoptosis, immunoblotting of PARP, cleaved PARP, cleaved caspase-3; conditions: 10 μM pretreatment 24 h, then IFNγ 50 ng/ml alone or with TNFα 10 ng/ml, 48 h
Method: FIG. 7: E-cadherin-enhancing drugs attenuate cytokine-induced cell death. Confluent T84 cell monolayers were pretreated with either vehicle, or ECU (10 μM) for 24 h. Afterwards, cells were exposed to either IFNγ (50 ng/ml) alone, or its combination with TNFα (10 ng/ml) with and without addition of ECU for additional 48h. Cell were lysed and levels of different apoptotic markers were determined by immunoblotting analysis.
(§1) To prepare total cell lysates, epithelial cell monolayers were scraped and homogenized using a Dounce homogenizer in RIPA buffer (20 mM Tris, 50 mM NaCl, 2 mM EDTA, 2 mM EGTA, 1% sodium deoxycholate, 1% Triton X-100 (TX-100), and 0.1% SDS, pH 7.4) containing protease inhibitor cocktail and phosphatase inhibitor cocktails 2 and 3 (Sigma-Aldrich). The obtained total cell lysates were cleared by centrifugation (20 min at 14,000×g), diluted with 2×SDS sample loading buffer and boiled. SDS-polyacrylamide gel electrophoresis was conducted using a standard protocol with equal amounts of total protein (10 or 20 μg) loaded per each lane. The separated proteins were transferred to nitrocellulose membranes and the membranes were blocked with 5% non-fat milk. […]

T84 cell monolayers [2] = assay: Immunoblotting of signaling molecules after multiple wounding; conditions: 10 μM pretreatment 24 h; lysates 12 and 24 h post-wounding
Method: Confluent T84 cell monolayers were pretreated with either vehicle, ECU (10 μM), or ML327 (10 μM), for 24 h, and were subjected to multiple wounding. Total cell lysates were collected at 12 and 24 h post-wounding, and the expression of different signaling molecules was determined by immunoblotting. Representative immunoblots (A) and densitometric quantification of protein band intensities from three independent experiments (B) are shown. Data are presented as a mean ±SE (n=3); *p<0.05; **p<0.01.
as §1

T84 cell monolayers [3] = assay: Immunofluorescence labeling of adherens and tight junctions (E-cadherin, ZO-1)
Method: (§2) FIG. 5: E-cadherin-enhancing drugs prevent cytokine-induced disruption of epithelial adherens junctions. Confluent T84 cell monolayers were pretreated with either vehicle, or ECU (10 μM) for 24 hours. Afterwards, cells were exposed to a combination of TNFα (10 ng/ml) and IFNγ (50 ng/ml) with and without ECU for 48 h. Cells were fixed and structure of adherens was determined by immunolabeling of E-cadherin. Arrows point on disruption of normal E-cadherin labeling in cytokine-exposed, vehicle-treated cells.
as §2, with “FIG. 6:” for “FIG. 5:”, “epithelial tight” for “epithelial adherens”, “with or” for “with and”, “of tight junctions” for “of adherens”, “by ZO-1 immunolabeling.” for “by immunolabeling of E-cadherin.”, “normal ZO-1” for “normal E-cadherin”
In order to visualize structure of epithelial junctions, cultured colonic epithelial cell monolayers were fixed and permeabilized with 100% methanol at −20° C. Fixed samples were blocked for 60 min in HBSS containing 1% bovine serum albumin, followed by a 60-min incubation with primary antibodies against E-cadherin (BD Bioscience) and ZO-1 (Thermo-Fisher). Samples were then washed and incubated with Alexa-Fluor-488-conjugated donkey anti-rabbit and Alexa-Fluor-555—conjugated donkey anti-mouse secondary antibodies for 60 min, rinsed with blocking buffer, and mounted on slides with ProLong Antifade mounting reagent (Thermo-Fisher). Immunolabeled cell monolayers were imaged using a Leica SP8 confocal microscope (Wentzler, Germany). The Alexa Fluor 488 and 555 signals were acquired sequentially in frame-interlace mode to eliminate cross talk between channels. Images were processed using Adobe Photoshop. The images shown are representative of at least three experiments, with multiple images taken per slide. […]

[4] = 10 μM pretreatment 24 h, then TNFα 10 ng/ml + IFNγ 50 ng/ml, 48 h

O=C(NCCCCc1ccncc1)c1cc(-c2ccco2)on1 [ECU]
Cytokine-induced apoptosis (PARP cleavage, caspase-3 activation) (T84 cell monolayers [1]): prevented cytokine-induced PARP cleavage and caspase-3 activation | Expression of signaling molecules (pro-migratory signaling) (T84 cell monolayers [2]): activation of pro-migratory signaling events | Cytokine-induced adherens junction (AJ) disassembly, E-cadherin immunolabeling (T84 cell monolayers [3]; [4]): dramatic suppression of cytokine-induced disruption of adherens junctions; also recorded: completely prevented cytokine-induced junctional disassembly | Cytokine-induced tight junction (TJ) disassembly, ZO-1 immunolabeling (T84 cell monolayers [3]; [4]): inhibition of cytokine-induced tight junction disruption; also recorded: completely prevented cytokine-induced junctional disassembly | Normal AJ and TJ structure (T84 cell monolayers [3]; 10 μM, without cytokines): little effect
